Biological target: T1, COX-1 (Ovis aries, UniProt P05979)
T1 sequence (P05979 25-600): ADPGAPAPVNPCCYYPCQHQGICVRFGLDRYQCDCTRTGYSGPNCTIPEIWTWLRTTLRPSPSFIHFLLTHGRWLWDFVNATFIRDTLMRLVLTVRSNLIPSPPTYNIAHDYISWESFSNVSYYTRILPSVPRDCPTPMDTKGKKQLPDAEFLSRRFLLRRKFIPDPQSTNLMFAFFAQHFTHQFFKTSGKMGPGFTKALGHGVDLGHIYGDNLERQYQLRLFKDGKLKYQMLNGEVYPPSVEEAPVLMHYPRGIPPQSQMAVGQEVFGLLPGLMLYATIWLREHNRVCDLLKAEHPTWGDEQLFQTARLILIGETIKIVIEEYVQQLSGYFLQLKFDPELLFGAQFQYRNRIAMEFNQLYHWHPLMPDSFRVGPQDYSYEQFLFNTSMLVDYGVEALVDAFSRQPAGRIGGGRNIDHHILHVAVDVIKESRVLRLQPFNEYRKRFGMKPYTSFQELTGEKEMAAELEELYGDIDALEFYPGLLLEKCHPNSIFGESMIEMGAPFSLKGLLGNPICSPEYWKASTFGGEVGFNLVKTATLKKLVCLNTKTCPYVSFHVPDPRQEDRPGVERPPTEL
Test: inhibition of COX-1-catalyzed oxidation of arachidonic acid
Format: biochemical
Details: at concentrations up to 1 mM

SMILES: Cc1nc2c(c(C)c1O)CNC(=O)N2 [compound 13]
- COX-1 inhibition (in words): not able to significantly inhibit COX-1

Source: paper PMC3904457 (ACS medicinal chemistry letters, 2013)
